In patent US20260191968A1, “PROTAC DEGRADERS OF MLLT1 AND/OR MLLT3” (DARK BLUE THERAPEUTICS LTD, priority 2024, published 2026):

Tests used:
MV4-11 cells = test: MV4-11 cellular proliferative assay, Assay Format A (CellTiter-Glo, 120 hours); assay type: cell-based; conditions: Homo sapiens
Description: An MV4-11 proliferation assay was used to test the ability of compounds to reduce cell viability. MV4-11 cells (ATCC #CRL9591) were grown in IMDM medium (11510596, Gibco) supplemented with 10% fetal bovine serum (F7524, Gibco) and 1% Penicillin/Streptomycin (15140-122, Gibco) at 37° C. with 5% CO2. Cells were seeded in 384-well Elplasia plates (4447, Corning) at a density of 50 cells/well and treated with vehicle (DMSO) or compounds (10 serial semi-log dilutions, 30 μM as top concentration).
After 120 hours of treatment, cells were incubated for 10 min at RT with the CellTiter-Glo (CTG) reagent (G7571, Promega). Measurement of the luminescence signal was performed on a microplate reader (Ensight, PerkinElmer). CTG reagent measures the amount of ATP, which is directly proportional to the number of cells, to determine the number of viable cells in culture.
The data were analysed as follows:
where x is the measured raw signal value of a well, (cr) is the median of the measured signal values for the Central Reference (DMSO) wells on a plate, (sr) is the median of the measured signal values for the Scale Reference (reference compound) wells on a plate.
where the experimental set-up assumes the Hill parameters in certain ranges: S0~Central Reference (CR) from normalization (=Bottom), Sinf~Scale Reference (SR) from normalization (=Top), nHill~1, AC50~within the measured concentration range.

MLLT1 = biological target: T1, MLLT1 (Homo sapiens, UniProt Q03111); test: MLLT1 degradation assay in MV4-11 cells (JESS chemiluminescent detection), three concentrations, 24 h; assay type: cell-based; conditions: with respect to DMSO control
T1 construct: host or cells: MV4-11
T1 sequence (Q03111 1-559): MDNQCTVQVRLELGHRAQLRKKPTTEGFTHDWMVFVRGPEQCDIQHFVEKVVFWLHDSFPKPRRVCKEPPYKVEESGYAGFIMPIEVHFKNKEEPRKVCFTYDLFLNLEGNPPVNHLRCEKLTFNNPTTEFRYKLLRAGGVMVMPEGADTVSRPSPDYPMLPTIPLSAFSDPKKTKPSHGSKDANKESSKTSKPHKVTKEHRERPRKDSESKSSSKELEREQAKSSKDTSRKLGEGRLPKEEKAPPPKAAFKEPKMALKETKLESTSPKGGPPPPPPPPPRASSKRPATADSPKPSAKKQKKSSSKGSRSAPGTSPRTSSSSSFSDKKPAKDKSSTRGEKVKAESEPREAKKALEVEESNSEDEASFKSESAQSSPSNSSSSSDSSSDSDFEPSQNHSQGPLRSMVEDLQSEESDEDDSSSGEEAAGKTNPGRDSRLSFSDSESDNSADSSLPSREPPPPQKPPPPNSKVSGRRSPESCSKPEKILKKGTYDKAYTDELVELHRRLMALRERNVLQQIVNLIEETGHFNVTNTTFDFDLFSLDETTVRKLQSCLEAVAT
In short: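 MV4-11 cells treated 24 h at 37° C, 5% CO2 with 1000, 100 and 10 nM compound (0.1% DMSO final). MLLT1 quantified by automated capillary chemiluminescent immunodetection; band peak area expressed as % degradation relative to DMSO control.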

IC50 (MV4-11 cells) [nM]	MLLT1% Degradation @ 0.1 μM (MLLT1)	MLLT1% Degradation @ 1 μM (MLLT1)	MLLT1% Degradation @ 0.01 μM (MLLT1)	SMILES
≤ 100	A (Category A: A ≥ 75% degradation)	A (Category A: A ≥ 75% degradation)	A (Category A: A ≥ 75% degradation)	CN1CCC[C@@H]1c1cc2cnc(NC(=O)c3ccc(OCC#Cc4cccc5c4CN(C4CCC(=O)NC4=O)C5=O)cc3)cc2[nH]1 (stereo partly drawn) [Example 51, 4-((3-(2-(2,6-dioxopiperidin-3-yl)-1-oxoisoindolin-4-yl)prop-2-yn-1-yl)oxy)-N-(2-((R)-1-methylpyrrolidin-2-yl)-1H-pyrrolo[3,2-c]pyridin-6-yl)benzamide]
≤ 100	A (Category A: A ≥ 75% degradation)	A (Category A: A ≥ 75% degradation)	A (Category A: A ≥ 75% degradation)	CN1CCC[C@@H]1c1cc2cnc(NC(=O)c3cccc(CCCNc4cccc5c4C(=O)N(C4CCC(=O)NC4=O)C5=O)c3)cc2[nH]1 (stereo partly drawn) [Example 45, 3-(3-((2-(2,6-dioxopiperidin-3-yl)-1,3-dioxoisoindolin-4-yl)amino)propyl)-N-(2-((R)-1-methylpyrrolidin-2-yl)-1H-pyrrolo[3,2-c]pyridin-6-yl)benzamide]
≤ 100	A (Category A: A ≥ 75% degradation)	A (Category A: A ≥ 75% degradation)	A (Category A: A ≥ 75% degradation)	CN1CCC[C@@H]1c1cc2cnc(NC(=O)c3ccc(OCC#Cc4cccc5c4CN(C4CCC(=O)NC4=O)C5=O)cc3F)cc2[nH]1 (stereo partly drawn) [Example 57, 4-((3-(2-(2,6-dioxopiperidin-3-yl)-1-oxoisoindolin-4-yl)prop-2-yn-1-yl)oxy)-2-fluoro-N-(2-((R)-1-methylpyrrolidin-2-yl)-1H-pyrrolo[3,2-c]pyridin-6-yl)benzamide]
≤ 100	A (Category A: A ≥ 75% degradation)	A (Category A: A ≥ 75% degradation)	A (Category A: A ≥ 75% degradation)	CN1CCC[C@@H]1c1cc2cnc(NC(=O)c3ccc(-c4cnn(CCCC5CCN(c6cccc7c6CN(C6CCC(=O)NC6=O)C7=O)CC5)c4)cc3)cc2[nH]1 (stereo partly drawn) [Example 35, 4-[1-(3-{1-[2-(2,6-dioxopiperidin-3-yl)-1-oxo-3H-isoindol-4-yl]piperidin-4-yl}propyl)pyrazol-4-yl]-N-{2-[(2R)-1-methylpyrrolidin-2-yl]-1H-pyrrolo[3,2-c]pyridin-6-yl}benzamide]
≤ 100	–	–	–	CN1CCC[C@@H]1c1cc2cnc(NC(=O)CCCC3CN(c4cccc5c4C(=O)N(C4CCC(=O)NC4=O)C5=O)C3)cc2[nH]1 (stereo partly drawn) [Example 48, 4-(1-(2-(2,6-dioxopiperidin-3-yl)-1,3-dioxoisoindolin-4-yl)azetidin-3-yl)-N-(2-((R)-1-methylpyrrolidin-2-yl)-1H-pyrrolo[3,2-c]pyridin-6-yl)butanamide]

SMILES	IC50 (MV4-11 cells) [nM]	MLLT1% Degradation @ 0.1 μM (MLLT1)	MLLT1% Degradation @ 1 μM (MLLT1)	MLLT1% Degradation @ 0.01 μM (MLLT1)
CN1CCC[C@@H]1c1cc2cnc(NC(=O)CCCCC3CCN(c4cccc5c4C(=O)N(C4CCC(=O)NC4=O)C5=O)CC3)cc2[nH]1 (stereo partly drawn) [Example 42, 5-(1-(2-(2,6-Dioxopiperidin-3-yl)-1,3-dioxoisoindolin-4-yl)piperidin-4-yl)-N-(2-((R)-1-methylpyrrolidin-2-yl)-1H-pyrrolo[3,2-c]pyridin-6-yl)pentanamide]	≤ 100	B (Category B: 50% ≤ B < 75% degradation)	B (Category B: 50% ≤ B < 75% degradation)	–
CN1CCC[C@@H]1c1cc2cnc(NC(=O)c3ccc(CCC#Cc4cccc5c4CN(C4CCC(=O)NC4=O)C5=O)cc3)cc2[nH]1 (stereo partly drawn) [Example 52, 4-(4-(2-(2,6-dioxopiperidin-3-yl)-1-oxoisoindolin-4-yl)but-3-yn-1-yl)-N-(2-((R)-1-methylpyrrolidin-2-yl)-1H-pyrrolo[3,2-c]pyridin-6-yl)benzamide]	≤ 100	A (Category A: A ≥ 75% degradation)	B (Category B: 50% ≤ B < 75% degradation)	A (Category A: A ≥ 75% degradation)
CN1CCC[C@@H]1c1cc2cnc(NC(=O)CCCCCC3CCN(c4cccc5c4C(=O)N(C4CCC(=O)NC4=O)C5=O)CC3)cc2[nH]1 (stereo partly drawn) [Example 43, 6-(1-(2-(2,6-dioxopiperidin-3-yl)-1,3-dioxoisoindolin-4-yl)piperidin-4-yl)-N-(2-((R)-1-methylpyrrolidin-2-yl)-1H-pyrrolo[3,2-c]pyridin-6-yl)hexanamide]	≤ 100	A (Category A: A ≥ 75% degradation)	B (Category B: 50% ≤ B < 75% degradation)	–
CN1CCC[C@@H]1c1cc2cnc(NC(=O)COCCCCNc3cccc4c3C(=O)N(C3CCC(=O)NC3=O)C4=O)cc2[nH]1 (stereo partly drawn) [Example 40, 2-(4-((2-(2,6-dioxopiperidin-3-yl)-1,3-dioxoisoindolin-4-yl)amino)butoxy)-N-(2-((R)-1-methylpyrrolidin-2-yl)-1H-pyrrolo[3,2-c]pyridin-6-yl)acetamide]	≤ 100	C (Category C: 25% ≤ C < 50% degradation)	B (Category B: 50% ≤ B < 75% degradation)	–
CN1CCC[C@@H]1c1cc2cnc(NC(=O)c3cccc(-c4cnn(CCCC5CCN(c6cccc7c6C(=O)N(C6CCC(=O)NC6=O)C7=O)CC5)c4)c3)cc2[nH]1 (stereo partly drawn) [Example 47, 3-(1-(3-(1-(2-(2,6-dioxopiperidin-3-yl)-1,3-dioxoisoindolin-4-yl)piperidin-4-yl)propyl)-1H-pyrazol-4-yl)-N-(2-((R)-1-methylpyrrolidin-2-yl)-1H-pyrrolo[3,2-c]pyridin-6-yl)benzamide]	≤ 100	B (Category B: 50% ≤ B < 75% degradation)	A (Category A: A ≥ 75% degradation)	C (Category C: 25% ≤ C < 50% degradation)
CN1CCC[C@@H]1c1cc2cnc(NC(=O)c3ccc(OCCC#Cc4cccc5c4CN(C4CCC(=O)NC4=O)C5=O)cc3)cc2[nH]1 (stereo partly drawn) [Example 19, 4-((4-(2-(2,6-dioxopiperidin-3-yl)-1-oxoisoindolin-4-yl)but-3-yn-1-yl)oxy)-N-(2-((R)-1-methylpyrrolidin-2-yl)-1H-pyrrolo[3,2-c]pyridin-6-yl)benzamide]	≤ 100	A (Category A: A ≥ 75% degradation)	A (Category A: A ≥ 75% degradation)	B (Category B: 50% ≤ B < 75% degradation)
CN1CCC[C@@H]1c1cc2cnc(NC(=O)c3ccc(CCC#Cc4cccc5c4CN(C4CCC(=O)NC4=O)C5=O)cc3F)cc2[nH]1 (stereo partly drawn) [Example 54, 4-(4-(2-(2,6-dioxopiperidin-3-yl)-1-oxoisoindolin-4-yl)but-3-yn-1-yl)-2-fluoro-N-(2-((R)-1-methylpyrrolidin-2-yl)-1H-pyrrolo[3,2-c]pyridin-6-yl)benzamide]	≤ 100	A (Category A: A ≥ 75% degradation)	B (Category B: 50% ≤ B < 75% degradation)	A (Category A: A ≥ 75% degradation)
CN1CCC[C@@H]1c1cc2cnc(NC(=O)c3ccc(CCC#Cc4cccc5c4n(C)c(=O)n5C4CCC(=O)NC4=O)cc3)cc2[nH]1 (stereo partly drawn) [Example 53, 4-(4-(1-(2,6-dioxopiperidin-3-yl)-3-methyl-2-oxo-2,3-dihydro-1H-benzo[d]imidazol-4-yl)but-3-yn-1-yl)-N-(2-((R)-1-methylpyrrolidin-2-yl)-1H-pyrrolo[3,2-c]pyridin-6-yl)benzamide]	≤ 100	A (Category A: A ≥ 75% degradation)	B (Category B: 50% ≤ B < 75% degradation)	A (Category A: A ≥ 75% degradation)
CN1CCC[C@@H]1c1cc2cnc(NC(=O)c3ccc(CC4CCN(c5cccc6c5C(=O)N(C5CCC(=O)NC5=O)C6=O)CC4)cc3)cc2[nH]1 (stereo partly drawn) [Example 3, 4-((1-(2-(2,6-dioxopiperidin-3-yl)-1,3-dioxoisoindolin-4-yl)piperidin-4-yl)methyl)-N-(2-((R)-1-methylpyrrolidin-2-yl)-1H-pyrrolo[3,2-c]pyridin-6-yl)benzamide]	≤ 100	A (Category A: A ≥ 75% degradation)	A (Category A: A ≥ 75% degradation)	C (Category C: 25% ≤ C < 50% degradation)
